The source of these data is ChEMBL document CHEMBL4480444, “Structural requirement of tunicamycin V for MraY inhibition” (Bioorg Med Chem, 2019).

The assay has as its target T1, Phospho-N-acetylmuramoyl-pentapeptide-transferase (Staphylococcus aureus, UniProt P0C1R8).
T1 sequence (P0C1R8 whole entry): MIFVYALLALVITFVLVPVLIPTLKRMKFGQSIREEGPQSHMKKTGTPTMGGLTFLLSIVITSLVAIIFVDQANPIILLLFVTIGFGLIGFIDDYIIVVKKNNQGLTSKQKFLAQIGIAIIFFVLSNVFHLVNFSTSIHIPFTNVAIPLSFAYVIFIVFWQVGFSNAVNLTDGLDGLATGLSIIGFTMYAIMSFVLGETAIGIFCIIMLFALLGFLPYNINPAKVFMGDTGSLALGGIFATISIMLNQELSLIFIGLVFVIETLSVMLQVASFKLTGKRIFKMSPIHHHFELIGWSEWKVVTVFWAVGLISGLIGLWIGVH
In words: Inhibition of Staphylococcus aureus MraY assessed as reduction in dansylated lipid I formation using UDP-MurNAc-dansylpentapeptide incubated for 3 hrs by fluorescence assay.

Consider `CC(C)CCCCCCCCC/C=C/C(=O)N[C@H]1C(O)O[C@H](C[C@@H](O)[C@H]2O[C@@H](n3ccc(=O)[nH]c3=O)[C@H](O)[C@@H]2O)[C@H](O)[C@@H]1O` (stereo not given in full), for which the IC50 came out at 36 µM.

With `CC(=O)N[C@H]1[C@H](O[C@H]2O[C@H](CO)[C@@H](O)[C@H](O)[C@H]2NC(C)=O)O[C@H](C[C@@H](O)[C@H]2O[C@@H](n3ccc(=O)[nH]c3=O)[C@H](O)[C@@H]2O)[C@H](O)[C@@H]1O`, the 50% inhibitory concentration (IC50) came to 36 µM.

In the case of `CC(=O)N[C@H]1[C@@H](O[C@@H]2O[C@H](CO)[C@H](O)[C@H](O)[C@H]2NC(=O)/C=C/CCCCCCCCCC(C)C)O[C@H](CO)[C@@H](O)[C@@H]1O`, the IC50 is above 100 µM.

In the case of `CC(=O)N[C@H]1[C@@H](O[C@@H]2O[C@H](C[C@@H](O)[C@H]3O[C@@H](n4ccc(=O)[nH]c4=O)[C@H](O)[C@@H]3O)[C@H](O)[C@H](O)[C@H]2NC(=O)/C=C/CCCCCCCCCC(C)C)O[C@H](CO)[C@@H](O)[C@@H]1O` (stereo in doubt; form 1), the IC50 came out at 0.25 µM.

For `CC(=O)N[C@H]1[C@@H](O[C@@H]2O[C@H](C[C@@H](O)[C@H]3O[C@@H](n4ccc(=O)[nH]c4=O)[C@H](O)[C@@H]3O)[C@H](O)[C@H](O)[C@H]2NC(=O)/C=C/CCCCCCCCCC(C)C)O[C@H](CO)[C@@H](O)[C@@H]1O` (stereo in doubt; form 2), the IC50 worked out at 0.35 µM.

Usually IC50 stands for the point on the concentration scale where inhibition reaches its midpoint.
